Results reported in US4792559A, “1,2,3,4-tetrahydroquinoline substituted 5-aminopentanenitrile compounds and their use as calcium modulators” (ADIR et Compagnie, priority 1985, dated 1988).
pIC50, pKd: −log10 of the molar value. Entries after “also recorded” stand apart in the source; their conditions may differ.

How the values were obtained:
left auricle (LA) = test: Isolated left auricle, inotropic effect; set-up: species or system rat (male Wistar); settings: Rattus norvegicus; stimulated electrically at 3 Hz
Procedure: (§1) a. Study of isolated organs removed from rats
(§2) Male Wistar rats weighing from 350 to 400 g are used.
(§3) the right auricle (RA) and left auricle (LA) RA beats spontaneously.
LA is stimulated electrically at a rate of 3 Hz (180 beats per min.) (amplitude of the stimulations: threshold×2).
(§4) Stabilisation is obtained in physiological liquid (2) after 30 minutes.
(§5) The substances to be tested are then added (test sample 0.2 ml) in cumulative doses every 15 minutes. The effects on RA are chronotropic. The effects on LA are inotropic. The construction of the activity-dose curves enables the IC50, expressed in M, to be measured.

[1] = molecular target: T1, Ca++ channels of membranes of transverse tubules in skeletal muscle; test: Binding on Ca++ channels of membranes of transverse tubules in skeletal muscle; settings: transverse tubules in skeletal muscle; read-out: Kd for the Ca++ channel
T1 construct: membranes of transverse tubules in skeletal muscle; from tissue; host or cells: skeletal muscle, transverse tubule membranes
Source text: (§6) C. Binding on Ca^++ channels of membranes of transverse tubules in skeletal muscle.

[2] = molecular target: T2, Ca++ channels of membranes of transverse tubules in skeletal muscle (Homo sapiens, UniProt Q13698); test: as above
T2 construct: membranes of transverse tubules in skeletal muscle; from tissue; host or cells: skeletal muscle, transverse tubule membranes
Source text: as §6

calmodulin = calmodulin (Homo sapiens, UniProt P0DP23); test: Calcium calmodulin binding, fluorescence of dansylated calmodulin
Procedure: b. Fixation on calcium calmodulin binding
The orientations of synthesis which may lead to possibilities of inhibiting calmodulin are evaluated by measuring the fluorescence of dansylated calmodulin.
The substances to be tested are added to the experimental vessel (2 ml). The increase in fluorescence of dansylated calmodulin enables effect-dose curves to be constructed; measuring the EC50 gives an apparent Kd value. After extrapolation of the apparent Kd values to 0 calmodulin, the experiments carried out for different calcium-calmodulin concentration values enable the characteristic Kd values of the tested substances to be determined (Method proposed by Johnson and Wittenauer, 1983, Biochem., 211, 473-479).
d. Evaluation of the possibility of inhibition at the calmodulin level

dogs = test: Haemodynamic study in anaesthetised dogs; assay type: in vivo, mongrel dogs; settings: for dP/dt: Left ventricular pressure derivative, variation: measured at 20 minutes
Procedure: A haemodynamic study was carried out on mongrel dogs weighing from 25 to 30 kg, which were anaesthetised with sodium pentobarbital in a dose of 30 mg/kg i.v., intubated and ventilated, and subjected to a thoracotomy at the 5th left intercostal space.
The left and aortal ventricular pressures are measured by means of MILLAR probes introduced by the femoral artery route. The cardiac frequency is measured by Biotach Gould ECG (derivation D2); the gases of the aortal blood and of the coronary sinus are analysed by an ABL3 radiometer.
The products tested were injected by the femoral vein route.

aorta [3] = test: Isolated rat aorta rings stimulated with potassium-rich solution (K+ 100 mM), relaxation; set-up: species or system rat (male Wistar); settings: aorta rings stimulated with K+ 100 mM, read-out: AORTA St:K+ IC50
Procedure: as §1, §2
(§7) After rapid sacrifice of the animal, the following are removed:
(§8) the aorta, dissected and prepared in rings; after an equilibration period of 1 hour in the reference physiological solution (1), the prepared specimens are stimulated with a solution rich in potassium (K^+) (100 mM) or with noradrenaline (NA) (10^-6 M).
(§9) The substances to be tested are then added (test sample 0.2 ml) in cumulative doses every 15 minutes.
(§10) The relaxation values obtained permit an activity-dose curve to be constructed, enabling the IC50 to be calculated in M.
(§11) The characteristics of the solutions used are as follows: […]

aorta [4] = test: Isolated rat aorta rings stimulated with noradrenaline (10^-6 M), relaxation; set-up: species or system rat (male Wistar); settings: read-out: AORTA St:NA IC50
Procedure: as §1, §2, §7, §8, §9, §10, §11

right auricle (RA) = test: Isolated right auricle, chronotropic effect; set-up: species or system rat (male Wistar); settings: Rattus norvegicus; spontaneously beating; read-out: RIGHT AURICLE (RA) (CHRONOTROPIC EFFECT) IC50
Procedure: as §1, §2, §3, §4, §5

[5] = tested on: aorta artery of the rat without endothelium; test: Contraction of rat aorta without endothelium by ionophore calcium A 23187; settings: Rattus norvegicus, A 23187 at 5.10^-6 M
left auricle / aorta = test: Evaluation of myocardium/vessel selectivity (IC50 LA/IC50 aorta); set-up: species or system rat (male Wistar)
Source text: c. Evaluation of myocardium/vessel selectivity
The IC50 LA/IC50 aorta ratio leads to a first evaluation; the high values indicate vascular selectivity.

T2 sequence (Q13698 whole entry): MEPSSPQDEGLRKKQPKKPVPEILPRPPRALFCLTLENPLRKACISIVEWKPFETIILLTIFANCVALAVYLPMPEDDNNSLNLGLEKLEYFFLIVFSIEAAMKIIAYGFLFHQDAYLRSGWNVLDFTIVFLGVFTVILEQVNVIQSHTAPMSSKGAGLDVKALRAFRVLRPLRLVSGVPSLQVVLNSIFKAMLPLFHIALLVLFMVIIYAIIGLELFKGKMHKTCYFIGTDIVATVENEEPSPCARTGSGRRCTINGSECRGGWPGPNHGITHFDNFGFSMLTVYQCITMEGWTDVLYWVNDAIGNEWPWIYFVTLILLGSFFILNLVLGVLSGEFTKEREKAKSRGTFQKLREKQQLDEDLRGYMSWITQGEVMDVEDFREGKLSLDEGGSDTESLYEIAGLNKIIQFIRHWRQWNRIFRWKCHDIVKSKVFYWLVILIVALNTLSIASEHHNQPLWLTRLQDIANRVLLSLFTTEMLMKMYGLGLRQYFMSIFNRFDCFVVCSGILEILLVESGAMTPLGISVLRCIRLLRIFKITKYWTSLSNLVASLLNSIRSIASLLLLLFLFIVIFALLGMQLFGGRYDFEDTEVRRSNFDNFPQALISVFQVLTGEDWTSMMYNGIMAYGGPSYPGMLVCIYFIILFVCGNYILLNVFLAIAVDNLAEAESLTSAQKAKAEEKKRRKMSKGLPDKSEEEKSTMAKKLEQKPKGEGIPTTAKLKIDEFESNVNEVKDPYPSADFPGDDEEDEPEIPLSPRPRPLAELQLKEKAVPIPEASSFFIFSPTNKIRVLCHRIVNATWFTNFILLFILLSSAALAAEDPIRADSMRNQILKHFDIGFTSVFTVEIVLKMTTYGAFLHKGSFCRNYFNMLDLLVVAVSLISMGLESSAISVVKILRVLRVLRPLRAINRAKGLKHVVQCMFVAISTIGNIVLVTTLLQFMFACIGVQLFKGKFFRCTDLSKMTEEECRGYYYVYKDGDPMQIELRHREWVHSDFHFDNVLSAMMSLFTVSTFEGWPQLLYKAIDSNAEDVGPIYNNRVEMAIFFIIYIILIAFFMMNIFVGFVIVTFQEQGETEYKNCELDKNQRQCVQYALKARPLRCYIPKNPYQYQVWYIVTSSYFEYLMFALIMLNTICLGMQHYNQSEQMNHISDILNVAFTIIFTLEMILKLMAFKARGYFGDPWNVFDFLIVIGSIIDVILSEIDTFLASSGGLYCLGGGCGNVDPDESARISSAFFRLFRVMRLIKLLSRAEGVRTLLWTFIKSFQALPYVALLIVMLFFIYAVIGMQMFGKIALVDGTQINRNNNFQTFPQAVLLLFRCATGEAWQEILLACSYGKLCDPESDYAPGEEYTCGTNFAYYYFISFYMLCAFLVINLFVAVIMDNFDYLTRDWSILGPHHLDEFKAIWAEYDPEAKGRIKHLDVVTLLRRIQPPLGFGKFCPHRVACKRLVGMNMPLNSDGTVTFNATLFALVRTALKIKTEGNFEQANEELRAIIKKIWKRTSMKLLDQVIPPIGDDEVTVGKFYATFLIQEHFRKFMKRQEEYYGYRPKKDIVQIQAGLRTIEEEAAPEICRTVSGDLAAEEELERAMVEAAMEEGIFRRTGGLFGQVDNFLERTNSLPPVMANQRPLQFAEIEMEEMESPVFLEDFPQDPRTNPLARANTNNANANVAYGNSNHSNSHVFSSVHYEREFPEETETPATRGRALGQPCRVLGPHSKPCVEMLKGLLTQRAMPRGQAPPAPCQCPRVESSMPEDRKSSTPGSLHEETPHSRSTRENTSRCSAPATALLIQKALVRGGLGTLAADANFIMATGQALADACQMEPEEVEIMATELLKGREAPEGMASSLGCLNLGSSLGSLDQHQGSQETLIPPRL
T2 sequence (P54289 25-944 partner limits assumed): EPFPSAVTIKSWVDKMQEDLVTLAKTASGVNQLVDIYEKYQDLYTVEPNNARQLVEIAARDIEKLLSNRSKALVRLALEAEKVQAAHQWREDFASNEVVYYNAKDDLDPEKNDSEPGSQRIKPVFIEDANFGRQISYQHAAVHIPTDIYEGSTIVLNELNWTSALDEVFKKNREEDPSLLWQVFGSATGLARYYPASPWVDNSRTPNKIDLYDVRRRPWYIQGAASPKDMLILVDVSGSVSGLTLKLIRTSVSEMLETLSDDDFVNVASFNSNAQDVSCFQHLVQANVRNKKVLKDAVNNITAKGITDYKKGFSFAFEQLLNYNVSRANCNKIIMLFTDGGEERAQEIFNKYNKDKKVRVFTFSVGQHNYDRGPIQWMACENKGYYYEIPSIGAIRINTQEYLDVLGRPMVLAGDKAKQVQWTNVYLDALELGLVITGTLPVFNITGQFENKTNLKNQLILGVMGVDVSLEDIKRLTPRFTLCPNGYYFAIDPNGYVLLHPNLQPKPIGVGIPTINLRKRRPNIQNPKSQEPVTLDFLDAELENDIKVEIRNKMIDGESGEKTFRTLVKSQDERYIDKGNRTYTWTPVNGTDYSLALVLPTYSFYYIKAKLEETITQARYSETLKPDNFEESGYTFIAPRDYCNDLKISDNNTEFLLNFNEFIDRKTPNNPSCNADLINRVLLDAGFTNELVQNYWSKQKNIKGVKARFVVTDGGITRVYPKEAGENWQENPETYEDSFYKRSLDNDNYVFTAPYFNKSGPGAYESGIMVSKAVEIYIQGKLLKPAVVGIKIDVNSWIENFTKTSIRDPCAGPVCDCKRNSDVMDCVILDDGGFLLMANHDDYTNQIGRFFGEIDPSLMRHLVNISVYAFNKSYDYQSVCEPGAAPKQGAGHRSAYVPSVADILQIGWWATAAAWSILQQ
T2 sequence (P54289 945-1103 partner limits assumed): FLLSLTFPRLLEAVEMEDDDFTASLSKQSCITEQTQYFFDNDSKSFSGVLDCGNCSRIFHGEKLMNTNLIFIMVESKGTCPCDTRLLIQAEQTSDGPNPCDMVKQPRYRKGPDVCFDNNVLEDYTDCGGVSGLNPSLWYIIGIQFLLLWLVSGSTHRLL
T2 sequence (Q02641 whole entry partner): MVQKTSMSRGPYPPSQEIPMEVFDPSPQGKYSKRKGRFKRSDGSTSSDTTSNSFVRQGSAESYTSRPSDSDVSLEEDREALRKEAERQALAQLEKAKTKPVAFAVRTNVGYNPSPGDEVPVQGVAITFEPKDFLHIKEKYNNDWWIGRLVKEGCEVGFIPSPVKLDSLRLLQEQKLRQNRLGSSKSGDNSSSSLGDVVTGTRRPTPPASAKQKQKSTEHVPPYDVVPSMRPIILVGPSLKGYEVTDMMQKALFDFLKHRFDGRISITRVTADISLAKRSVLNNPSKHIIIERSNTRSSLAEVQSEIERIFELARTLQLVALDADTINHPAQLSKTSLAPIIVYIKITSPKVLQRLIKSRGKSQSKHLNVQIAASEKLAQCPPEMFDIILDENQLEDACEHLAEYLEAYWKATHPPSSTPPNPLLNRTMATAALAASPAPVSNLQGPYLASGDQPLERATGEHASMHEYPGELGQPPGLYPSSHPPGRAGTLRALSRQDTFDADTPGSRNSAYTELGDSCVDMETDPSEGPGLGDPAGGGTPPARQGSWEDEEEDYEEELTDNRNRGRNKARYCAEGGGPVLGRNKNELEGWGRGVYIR
T2 sequence (Q06432 whole entry partner): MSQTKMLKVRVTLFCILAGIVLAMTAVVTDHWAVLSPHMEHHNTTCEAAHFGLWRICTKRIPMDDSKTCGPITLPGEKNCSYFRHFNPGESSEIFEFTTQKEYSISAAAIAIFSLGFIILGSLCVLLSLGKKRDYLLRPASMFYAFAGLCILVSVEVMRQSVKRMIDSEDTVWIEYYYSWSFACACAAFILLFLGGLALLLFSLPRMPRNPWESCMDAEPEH
T1 sequence (Q13698 whole entry): as the sequence (Q13698 whole entry) above
T1 sequence (P54289 25-944 partner limits assumed): as the sequence (P54289 25-944 partner limits assumed) above
T1 sequence (P54289 945-1103 partner limits assumed): as the sequence (P54289 945-1103 partner limits assumed) above
T1 sequence (Q02641 whole entry partner): as the sequence (Q02641 whole entry partner) above
T1 sequence (Q06432 whole entry partner): as the sequence (Q06432 whole entry partner) above

**Q.** Which results are given for `COc1cccc(C(C#N)(CCCN(C)CCc2ccc(OC)c3c2CCCN3C(C)=O)Sc2ccccc2)c1` (stereo not drawn) [Example 1, 2-(3-methoxyphenyl)-2-phenylthio-5-{N-[(1-acetyl-8-methoxy-1,2,3,4-tetrahydroquinol-5-yl)ethyl]-N-methylamino}-pentanenitrile]?
**A.** pIC50 (left auricle (LA)): 4.09; pKd [1]: 9.00; affinity for calcium channels relative to verapamil [2]: ~20 times the one of verapamil; affinity for calmodulin (calmodulin): an affinity for calmodulin coherent with the biological effect; Kd/IC50 AORTA K+ (calmodulin; close to 1 indicates vascular inhibition through calmodulin): 1.08; pKd (calmodulin; extrapolated to 0 calmodulin, read-out: Kd (cam)): 6.09; mechanism indicated by the pharmacological effects (calmodulin; in vitro): intracellular inhibitory mechanisms and, especially, a calcium-calmodulin inhibition mechanism; AAP: Average arterial pressure, maximum variation (dogs; IV 30 μg/kg): 0%; ACF: Average coronary flow, maximum variation (dogs; IV 30 μg/kg): +54%; CF: Cardiac frequency, maximum variation (dogs; IV 30 μg/kg): -5%; I/C: Myocardial O2 intake/consumption ratio, maximum variation (dogs; IV 30 μg/kg): +19%; PO2 SC: PO2 coronary blood sinus, maximum variation (dogs; IV 30 μg/kg): +14%; PR: PR space of the ECG, maximum variation (dogs; IV 30 μg/kg): 0%; AAP: Average arterial pressure, maximum variation (dogs; IV 100 μg/kg): -9%; ACF: Average coronary flow, maximum variation (dogs; IV 100 μg/kg): +109%; CF: Cardiac frequency, maximum variation (dogs; IV 100 μg/kg): -10%; I/C: Myocardial O2 intake/consumption ratio, maximum variation (dogs; IV 100 μg/kg): +55%; PO2 SC: PO2 coronary blood sinus, maximum variation (dogs; IV 100 μg/kg): +36%; PR: PR space of the ECG, maximum variation (dogs; IV 100 μg/kg): +7%; dP/dt: Left ventricular pressure derivative, variation (dogs; IV 100 μg/kg): 0%; AAP: Average arterial pressure, maximum variation (dogs; IV 300 μg/kg): -24%; ACF: Average coronary flow, maximum variation (dogs; IV 300 μg/kg): +117%; CF: Cardiac frequency, maximum variation (dogs; IV 300 μg/kg): -14%; I/C: Myocardial O2 intake/consumption ratio, maximum variation (dogs; IV 300 μg/kg): +118%; PO2 SC: PO2 coronary blood sinus, maximum variation (dogs; IV 300 μg/kg): +63%; PR: PR space of the ECG, maximum variation (dogs; IV 300 μg/kg): +19%; dP/dt: Left ventricular pressure derivative, variation (dogs; IV 300 μg/kg): -3%; negative inotropic effect / cardiotropic effect (dogs; i.v., compared with Verapamil): absence of a negative inotropic effect; percentage increase in the PR duration (dogs; i.v., compared with Verapamil): reduction in the percentage increase in the PR duration; pIC50 (aorta [3]; Rattus norvegicus): 6.12; pIC50 (aorta [3]): 6.22; pIC50 (aorta [4]): 5.26; pIC50 (right auricle (RA)): 5.00; pIC50 [5]: ~6.00; LA/AORTA SELECTIVITY (St:K+) (left auricle / aorta; IC50 LA/IC50 aorta, high values indicate vascular selectivity): 100; vascular selectivity (left auricle / aorta; compared with verapamil): this selectivity is greatest; also recorded: a greater selectivity in favour of vessels
